Test results from patent publication US20090264433A1, “Compounds, Compositions and Methods Comprising Triazine Derivatives” (Institute for OneWorld Health, priority 2008, published 2009).
Structures can show the parent of a compound that is named as a salt.

Biological target: T1, CFTR channel in human colonic T84 cells (Homo sapiens, UniProt P13569)
T1 construct: results in the phosphorylation and opening of CFTR anion channels; host or cells: human colonic T84 cells
Experiment: T84 assay (FLIPR membrane potential dye, forskolin/IBMX-stimulated CFTR)
Format: cell-based
Conditions: average of at least 2 runs unless annotated n = 1
How it was run: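 T84 cells (25,000/well, grown overnight) were washed in HBSS with 10 mM Hepes, then loaded with FLIPR Red membrane potential dye for 45 min with or without compound. CFTR was stimulated with 10 μM forskolin plus 100 μM IBMX after a 10 s baseline. Depolarization was tracked as a fluorescence increase, read every second for 150 s.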

T1 sequence (P13569 whole entry): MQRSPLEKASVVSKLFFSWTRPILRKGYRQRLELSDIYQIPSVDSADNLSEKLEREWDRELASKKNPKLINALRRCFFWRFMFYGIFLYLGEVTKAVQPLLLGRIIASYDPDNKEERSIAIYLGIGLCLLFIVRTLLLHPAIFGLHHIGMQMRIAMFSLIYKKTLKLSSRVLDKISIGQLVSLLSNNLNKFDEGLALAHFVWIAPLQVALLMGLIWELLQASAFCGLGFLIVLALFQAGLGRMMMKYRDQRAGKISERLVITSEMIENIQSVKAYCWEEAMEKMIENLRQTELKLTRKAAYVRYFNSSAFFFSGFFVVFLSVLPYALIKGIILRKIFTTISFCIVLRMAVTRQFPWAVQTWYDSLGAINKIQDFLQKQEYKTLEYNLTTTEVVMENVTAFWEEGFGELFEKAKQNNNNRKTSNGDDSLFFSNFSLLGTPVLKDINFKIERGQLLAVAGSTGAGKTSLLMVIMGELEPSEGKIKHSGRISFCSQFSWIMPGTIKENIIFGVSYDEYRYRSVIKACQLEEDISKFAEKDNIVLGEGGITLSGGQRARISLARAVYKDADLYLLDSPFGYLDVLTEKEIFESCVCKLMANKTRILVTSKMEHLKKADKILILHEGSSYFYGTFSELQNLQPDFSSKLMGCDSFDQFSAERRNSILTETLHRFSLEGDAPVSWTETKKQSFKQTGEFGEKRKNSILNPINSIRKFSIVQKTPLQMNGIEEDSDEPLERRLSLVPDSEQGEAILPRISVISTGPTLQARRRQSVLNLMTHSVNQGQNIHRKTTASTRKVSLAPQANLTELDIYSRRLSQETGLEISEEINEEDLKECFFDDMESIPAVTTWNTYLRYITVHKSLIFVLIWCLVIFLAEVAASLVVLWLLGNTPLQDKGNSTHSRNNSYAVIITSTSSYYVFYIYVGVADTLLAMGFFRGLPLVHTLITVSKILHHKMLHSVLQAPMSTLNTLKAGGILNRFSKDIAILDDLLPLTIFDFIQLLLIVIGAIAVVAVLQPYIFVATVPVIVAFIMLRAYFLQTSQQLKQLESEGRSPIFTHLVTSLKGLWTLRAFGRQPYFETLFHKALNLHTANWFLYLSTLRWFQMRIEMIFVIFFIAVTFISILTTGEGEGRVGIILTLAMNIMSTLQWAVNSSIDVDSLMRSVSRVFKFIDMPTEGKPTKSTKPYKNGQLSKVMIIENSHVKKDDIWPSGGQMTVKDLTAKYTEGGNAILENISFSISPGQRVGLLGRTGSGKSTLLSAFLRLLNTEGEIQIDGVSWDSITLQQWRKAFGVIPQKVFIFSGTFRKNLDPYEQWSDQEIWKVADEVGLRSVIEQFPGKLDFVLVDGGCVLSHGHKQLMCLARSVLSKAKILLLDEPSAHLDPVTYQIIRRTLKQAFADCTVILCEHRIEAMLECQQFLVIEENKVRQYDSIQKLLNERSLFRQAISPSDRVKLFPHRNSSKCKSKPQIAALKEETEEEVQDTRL

| IC50 | SMILES |
| --- | --- |
| 4.94 µM | CN(Cc1ccc(COc2ncc(-c3cc(Cl)c(O)c(Cl)c3)nn2)cc1)Cc1ccc(F)c(F)c1 [Compound 184, 2,6-dichloro-4-(3-(4-(((3,4-difluorobenzyl)(methyl)amino)methyl)benzyloxy)-1,2,4-triazin-6-yl)phenol] |
| 4.54 µM | OCCN(Cc1ccc(COc2ncc(-c3cc(Cl)c(O)c(Cl)c3)nn2)cc1)Cc1cccc(Cl)c1Cl [Compound 215, 2,6-dichloro-4-(3-(4-(((2,3-dichlorobenzyl)(2-hydroxyethyl)amino)methyl)benzyloxy)-1,2,4-triazin-6-yl)phenol] |
| 0.3 µM | Cc1ccc(CCOc2ncc(-c3cc(Br)c(O)c(Br)c3)nn2)cc1 [Compound 98, 2,6-dibromo-4-(3-(4-methylphenethoxy)-1,2,4-triazin-6-yl)phenol] |
| 0.48 µM | Oc1c(Br)cc(-c2cnc(OCc3ccc(F)c(F)c3)nn2)cc1Br [Compound 3, 2,6-dibromo-4-(3-(3,4-difluorobenzyloxy)-1,2,4-triazin-6-yl)phenol] |
| 10.6 µM | Cc1ccc(OCc2ncc(-c3cc(Cl)c(O)c(Cl)c3)nn2)c2c1CCC2 [Compound 41, 2,6-dichloro-4-(3-((7-methyl-2,3-dihydro-1H-inden-4-yloxy)methyl)-1,2,4-triazin-6-yl)phenol] |
| 6.97 µM | CN(Cc1ccc(COc2ncc(-c3cc(Cl)c(O)c(Cl)c3)nn2)cc1)Cc1cccc(Oc2ccccn2)c1 [Compound 186, 2,6-dichloro-4-(3-(4-((methyl(3-(pyridin-2-yloxy)benzyl)amino)methyl)benzyloxy)-1,2,4-triazin-6-yl)phenol] |
| 22 µM | Cc1cc(OCc2ncc(-c3cc(Br)c(O)c(Br)c3)nn2)cc(C)c1Br [Compound 54, 2,6-dibromo-4-(3-((4-bromo-3,5-dimethylphenoxy)methyl)-1,2,4-triazin-6-yl)phenol] |
| 3.31 µM | Oc1c(Cl)cc(-c2cnc(OCc3ccc(CN4Cc5ccc(F)cc5C4)cc3)nn2)cc1Cl [Compound 178, 2,6-dichloro-4-(3-(4-((5-fluoroisoindolin-2-yl)methyl)benzyloxy)-1,2,4-triazin-6-yl)phenol] |
| 1.37 µM | Oc1c(Br)cc(-c2cnc(OCc3ccccc3)nn2)cc1Br [Compound 19, 4-(3-(benzyloxy)-1,2,4-triazin-6-yl)-2,6-dibromophenol] |
| 2.64 µM | CN(Cc1ccc(COc2ncc(-c3cc(Cl)c(O)c(Cl)c3)nn2)cc1)Cc1ccc(-c2ccccn2)cc1 [Compound 197, 2,6-dichloro-4-(3-(4-((methyl(4-(pyridin-2-yl)benzyl)amino)methyl)benzyl-oxy)-1,2,4-triazin-6-yl)phenol] |
| 1.18 µM | Oc1c(Br)cc(-c2cnc(OC3CCc4ccccc4C3)nn2)cc1Br (stereo not shown) [Compound 108, 2,6-dibromo-4-(3-(1,2,3,4-tetrahydronaphthalen-2-yloxy)-1,2,4-triazin-6-yl)phenol] |
| 4.31 µM | CN(Cc1ccc(COc2ncc(-c3cc(Cl)c(O)c(Cl)c3)nn2)cc1)Cc1cccc(-c2cccnc2)c1 [Compound 213, 2,6-dichloro-4-(3-(4-((methyl(3-(pyridin-3-yl)benzyl)amino)methyl)benzyl-oxy)-1,2,4-triazin-6-yl)phenol] |
| 3.02 µM | Oc1c(Br)cc(-c2cnc(OCc3ccc(Br)cc3)nn2)cc1Br [Compound 24, 2,6-Dibromo-4-(3-(4-bromobenzyloxy)-1,2,4-triazin-6-yl)phenol] |
| 21 µM | CCN(CC)CC(NCc1ccc(COc2ncc(-c3cc(Cl)c(O)c(Cl)c3)nn2)cc1)c1ccccc1 (stereo not shown) [Compound 190, 2,6-dichloro-4-(3-(4-((2-(diethylamino)-1-phenylethylamino)methyl)benzyloxy)-1,2,4-triazin-6-yl)phenol] |
| 15.4 µM | Oc1c(Cl)cc(-c2cnc(OCc3ccc(CNCc4ccncc4)cc3)nn2)cc1Cl [Compound 156, 2,6-dichloro-4-(3-(4-((pyridin-4-ylmethylamino)methyl)benzyloxy)-1,2,4-triazin-6-yl)phenol] |
| 0.56 µM | Oc1c(Br)cc(-c2cnc(OCc3cccc(Oc4ccccc4)c3)nn2)cc1Br [Compound 27, 2,6-dibromo-4-(3-(3-phenoxybenzyloxy)-1,2,4-triazin-6-yl)phenol] |
| 11.7 µM | CN(Cc1ccncc1)Cc1ccc(COc2ncc(-c3cc(Cl)c(O)c(Cl)c3)nn2)cc1 [Compound 175, 2,6-dichloro-4-(3-(4-((methyl(pyridin-4-ylmethyl)amino)methyl)benzyl-oxy)-1,2,4-triazin-6-yl)phenol] |
| 11 µM | Oc1c(Br)cc(-c2cnc(COc3ccc(Cl)cc3Cl)nn2)cc1Br [Compound 42, 2,6-dibromo-4-(3-((2,4-dichlorophenoxy)methyl)-1,2,4-triazin-6-yl)phenol] |
| 4.9 µM | CN(Cc1ccc(COc2ncc(-c3cc(Cl)c(O)c(Cl)c3)nn2)cc1)Cc1cccc(CN2CCCC2)c1 [Compound 212, 2,6-dichloro-4-(3-(4-((methyl(3-(pyrrolidin-1-ylmethyl)benzyl)amino)methyl)benzyloxy)-1,2,4-triazin-6-yl)phenol, formate salt] |
| 5.21 µM | Oc1c(Cl)cc(-c2cnc(OCc3ccc(F)cc3)nn2)cc1Cl [Compound 146, 2,6-dichloro-4-(3-(4-fluorobenzyloxy)-1,2,4-triazin-6-yl)phenol] |

Further lines, the molecule ahead of its results:

| SMILES | IC50 |
| --- | --- |
| O=C(C1CC1)N1CCN(Cc2ccc(COc3ncc(-c4cc(Cl)c(O)c(Cl)c4)nn3)cc2)CC1 [Compound 219, cyclopropyl(4-(4-((6-(3,5-dichloro-4-hydroxyphenyl)-1,2,4-triazin-3-yloxy)methyl)benzyl)piperazin1-yl)methanone] | 12.4 µM |
| Oc1c(Br)cc(-c2cnc(OCc3ccc(Cl)cc3Cl)nn2)cc1Br [Compound 15, 2,6-dibromo-4-(3-(2,4-dichlorobenzyloxy)-1,2,4-triazin-6-yl)phenol] | 0.94 µM |
| O=C(c1cccnc1)N1CCN(Cc2ccc(COc3ncc(-c4cc(Cl)c(O)c(Cl)c4)nn3)cc2)CC1 [Compound 224, (4-(4-((6-(3,5-dichloro-4-hydroxyphenyl)-1,2,4-triazin-3-yloxy)methyl)benzyl)piperazin-1-yl)(pyridin-3-yl)methanone] | 11.8 µM |
| CN(Cc1ccc(COc2ncc(-c3cc(Cl)c(O)c(Cl)c3)nn2)cc1)Cc1cccnc1 [Compound 222, 2,6-dichloro-4-(3-(4-((methyl(pyridin-3-ylmethyl)amino)methyl)benzyl-oxy)-1,2,4-triazin-6-yl)phenol] | 11.2 µM |
| Oc1c(Br)cc(-c2cnc(OCc3ccccn3)nn2)cc1Br [Compound 104, 2,6-dibromo-4-(3-(pyridin-2-ylmethoxy)-1,2,4-triazin-6-yl)phenol] | 16 µM |
| CC(C)(C)OC(=O)N1CCN(Cc2cc(Cl)ccc2OCc2ncc(-c3cc(Br)c(O)c(Br)c3)nn2)CC1 [Compound 92, tert-butyl 4-(5-chloro-2-((6-(3,5-dibromo-4-hydroxyphenyl)-1,2,4-triazin-3-yl)methoxy)benzyl)piperazine-1-carboxylate] | 4.56 µM |
| Oc1c(Br)cc(-c2cnc(OCc3ccc(CN4CCOCC4)cc3)nn2)cc1Br [Compound 110, 2,6-dibromo-4-(3-(4-(morpholinomethyl)benzyloxy)-1,2,4-triazin-6-yl)phenol] | 12.9 µM |
| Oc1c(Cl)cc(-c2cnc(OCc3ccc(CN(Cc4ccccc4)Cc4ccccc4)cc3)nn2)cc1Cl [Compound 167, 2,6-dichloro-4-(3-(4-((dibenzylamino)methyl)benzyl-oxy)-1,2,4-triazin-6-yl)phenol] | 6.61 µM |
| Oc1c(Br)cc(-c2cnc(OCc3cccc(Cl)c3)nn2)cc1Br [Compound 7, 2,6-dibromo-4-(3-(3-chlorobenzyloxy)-1,2,4-triazin-6-yl)phenol] | 0.72 µM |
| CCC(=O)N1CCN(Cc2ccc(COc3ncc(-c4cc(Cl)c(O)c(Cl)c4)nn3)cc2)CC1 [Compound 221, 1-(4-(4-((6-(3,5-dichloro-4-hydroxyphenyl)-1,2,4-triazin-3-yloxy)methyl)benzyl)piperazin-1-yl)propan-1-one] | 17.4 µM |
| Oc1c(Br)cc(-c2cnc(COc3cccc(Cl)c3Cl)nn2)cc1Br [Compound 30, 2,6-dibromo-4-(3-((2,3-dichlorophenoxy)methyl)-1,2,4-triazin-6-yl)phenol] | 9.59 µM |
| CC(C)(C)OC(=O)N1CCN(Cc2ccc(COc3ncc(-c4cc(Cl)c(O)c(Cl)c4)nn3)cc2)CC1 [Compound 145, tert-butyl 4-(4-((6-(3,5-dichloro-4-hydroxyphenyl)-1,2,4-triazin-3-yloxy)methyl)benzyl)piperazine1-carboxylate, ammonium salt] | 1.55 µM |
| CN(Cc1ccc(COc2ncc(-c3cc(Cl)c(O)c(Cl)c3)nn2)cc1)Cc1cccc(Cl)c1Cl [Compound 183, 2,6-dichloro-4-(3-(4-(((2,3-dichlorobenzyl)(methyl)amino)methyl)benzyloxy)-1,2,4-triazin-6-yl)phenol] | 14.6 µM |
| Oc1c(Br)cc(-c2cnc(COc3cccc4ccccc34)nn2)cc1Br [Compound 33, 2,6-Dibromo-4-(3-((naphthalen-1-yloxy)methyl)-1,2,4-triazin-6-yl)phenol] | 5.39 µM |
| O=C(c1ccccc1Cl)N1CCN(Cc2ccc(COc3ncc(-c4cc(Cl)c(O)c(Cl)c4)nn3)cc2)CC1 [Compound 220, (2-chlorophenyl)(4-(4-((6-(3,5-dichloro-4-hydroxyphenyl)-1,2,4-triazin-3-yloxy)methyl)benzyl)piperazin1-yl)methanone] | 1.89 µM |
| COc1ccc(CCOc2ncc(-c3cc(Br)c(O)c(Br)c3)nn2)cc1 [Compound 97, 2,6-dibromo-4-(3-(4-methoxyphenethoxy)-1,2,4-triazin-6-yl)phenol] | 0.45 µM |
| CN(C)CCCOc1ccc(CN(C)Cc2ccc(COc3ncc(-c4cc(Cl)c(O)c(Cl)c4)nn3)cc2)cc1 [Compound 199, 2,6-dichloro-4-(3-(4-(((4-(3-(dimethylamino)propoxy)benzyl)(methyl)amino)methyl)benzyl-oxy)-1,2,4-triazin-6-yl)phenol] | 7.54 µM |
